The numbers were not newly measured in PMC2409936, “Phase I and pharmacokinetic study of XR11576, an oral topoisomerase I and II inhibitor, administered on days 1–5 of a 3-weekly cycle in patients with advanced solid tumours” (British Journal of Cancer, 2004), which cites them from elsewhere.

The first data set has as its system patients. To be noted: oral administration; ref Soepenberg et al, 2002; Natelson et al, 1996; Verschraegen et al, 1998; Creemers et al, 1997; Gerrits et al; Mani et al; De Jonge et al, 1999; cited from earlier work.
Turning to `CC[C@@]1(O)C(=O)OCc2c1cc1n(c2=O)Cc2cc3ccccc3nc2-1` [20-S-camptothecin], the “diarrhoea, share of administered cycles” value is recorded as 24–54%.
Turning to `CC[C@@]1(O)C(=O)OCc2c1cc1n(c2=O)Cc2cc3c(CN(C)C)c(O)ccc3nc2-1` [topotecan], the “diarrhoea, share of administered cycles” value is recorded as 24–54%.
In the case of `CC[C@@]1(O)C(=O)OCc2c1cc1n(c2=O)Cc2cc3c([N+](=O)[O-])cccc3nc2-1` [9-nitrocamptothecin], the “diarrhoea, share of administered cycles” value is listed as 24–54%.
Regarding `CCc1c2c(nc3ccc(OC(=O)N4CCC(N5CCCCC5)CC4)cc13)-c1cc3c(c(=O)n1C2)COC(=O)[C@]3(O)CC` [irinotecan], the “diarrhoea, share of administered cycles” value was 24–54%.
In the case of `CC[C@@]1(O)C(=O)OCc2c1cc1n(c2=O)Cc2cc3c(N)cccc3nc2-1` [9-AC], the “diarrhoea, share of administered cycles” value was 24–54%.

The data set is the same for the next values; noted with them: prolonged oral administration (21 days), not controlled with loperamide; ref Creemers et al, 1997; cited from earlier work.
In the case of `CC[C@@]1(O)C(=O)OCc2c1cc1n(c2=O)Cc2cc3c(CN(C)C)c(O)ccc3nc2-1` [topotecan], the severe diarrhoea is listed as 22%.
